Laboratory results taken from PubChem BioAssay (NCI).
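1) Cells in 96-well plates. 2) Compound, 48 h, 5 concentrations. 3) Linear interpolation between surrounding doses. 4) Unreached endpoint = highest concentration. TGI marks complete inhibition of growth.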

Tests used:
Test in all cases: NCI tumour cell line growth inhibition, 48 h
[1] = test system: SK-MEL-28 melanoma
[2] = test system: T-47D breast
[3] = test system: SW-620 colon
[4] = test system: SF-539 CNS
[5] = test system: DU-145 prostate
[6] = test system: A498 renal
[7] = test system: HOP-62 NSCLC
[8] = test system: COLO 205 colon
[9] = test system: RXF 393 renal
[10] = test system: OVCAR-3 ovarian
[11] = test system: OVCAR-5 ovarian
[12] = test system: HOP-92 NSCLC
[13] = test system: NCI-H522 lung
[14] = test system: EKVX NSCLC
[15] = test system: U251 CNS
[16] = test system: MOLT-4 leukemia
[17] = test system: HCT-116 colon
[18] = test system: OVCAR-4 ovarian
[19] = test system: IGROV1 ovarian
[20] = test system: MDA-MB-435

SMILES	TGI [1] [µM]	TGI [2] [µM]	TGI [3] [µM]	TGI [4] [µM]	TGI [5] [µM]	TGI [6] [µM]	TGI [7] [µM]	TGI [8] [µM]	TGI [9] [µM]	TGI [10] [µM]	TGI [11] [µM]	TGI [12] [µM]	TGI [13] [µM]	TGI [14] [µM]	TGI [15] [µM]	TGI [16] [µM]	TGI [17] [µM]	TGI [18] [µM]	TGI [19] [µM]	TGI [20] [µM]
CN=c1c2c(c3[nH]c4ccccc4c4cnc1c34)NCCC2=O	> 10	> 10	> 10	> 10	> 10	> 10	> 10	> 10	> 10	> 10	> 10	> 10	> 10	> 10	> 10	> 10	> 10	> 10	> 10	> 10
O=C(N/N=C/c1c(-c2ccccc2)no[n+]1[O-])N1CCOCC1	> 100	> 100	> 100	> 100	> 100	> 100	> 100	> 100	> 100	> 100	> 100	> 100	> 100	> 100	> 100	> 100	> 100	> 100	> 100	> 100
CC1=CC[C@H](C(C)C)C(C(O)[C@@H](C)O[Si](c2ccccc2)(c2ccccc2)C(C)(C)C)C1=O (some centres not stated)	> 100	46.1	65.5	44.1	65.4	35.5	47.6	47.6	30.8	35.5	36.2	37.9	37.6	28.9	31.8	> 100	28.7	41	64.8	51.3
CC(C)(C)OCC1NC(=O)[C@@H]2Cc3c([nH]c4ccccc34)C(c3ccccc3)N2C1=O (some centres not stated)	> 50	> 50	> 50	> 50	> 50	> 50	> 50	> 50	> 50	> 50	> 50	> 50	> 50	> 50	> 50	> 32.7	> 50	> 50	> 50	> 50
O=C1c2ccccc2C(=O)N1CC1S(=O)(=O)OCCOS1(=O)=O	> 100	> 100	> 100	> 100	> 100	> 100	> 100	> 100	> 100	> 100	> 100	> 100	> 100	> 100	> 100	> 100	> 100	> 100	> 100	> 100
COC(=O)[C@]12CC[C@H]3CC[C@H]([C@H]31)[C@H](c1ccccc1)N2	52.2	50.3	53.2	30.6	47.8	31.9	33.3	30.8	30.9	29.3	31.4	30.3	37.7	33.1	31.4	56.5	29.5	31.6	34.3	34.6
CC(=O)[C@@H]1C/C(=C\OCc2ccccc2)O[C@H]1C	> 100	> 100	> 100	> 100	> 100	> 100	> 100	> 100	> 100	> 100	> 100	> 100	> 100	> 100	> 100	> 100	> 100	> 100	> 100	> 100
O=C(c1c(F)c(F)c(F)c(F)c1F)N1CCN(C(=O)c2c(F)c(F)c(F)c(F)c2F)C1=S	14.9	24.2	3.59	24	27.2	32	29.1	18.6	9.27	12	29.4	12.9	1.65	32.9	22.2	11.4	7.72	10.4	8.96	11.9
Clc1ccc(OCc2nnc(CCCCCCCCc3nnc(COc4ccc(Cl)cc4Cl)n3Nc3ccccc3)n2Nc2ccccc2)c(Cl)c1	19	> 100	> 62.6	33.5	> 62.7	55.6	18.2	3.38	40.8	25.4	43.9	46.3	24.7	> 68.3	27.1	> 100	25.1	59.5	47.7	19.5
CC1C/C(=C\c2ccc(OC(=O)C(C)(C)C)cc2)C(=O)/C(=C/c2ccc(OC(=O)C(C)(C)C)cc2)C1 (configuration not stated)	> 100	> 100	> 100	> 100	> 100	> 100	> 100	> 100	70.9	> 100	> 100	> 100	15.6	> 100	> 100	37.7	> 100	> 100	63.3	> 100
CC(C)(Oc1ccccc1)C(=O)Sc1c(-c2ccccc2)c(=O)n(-c2ccccc2)c(=S)n1-c1ccccc1	> 100	> 100	> 100	45.4	> 100	> 100	52.8	> 100	63.2	96.4	> 100	> 100	64.2	> 100	56.5	> 100	> 100	> 100	47.6	52.4
CN(C)CCCNc1ccc2c(=O)n(CCN(C)C)c(=O)n3c4ccccc4c(=O)c1c23	2.57	13.7		2.02	0.511	5.35	5.91	1.22	2.58	3.35	1.89	7.79	0.385	3.02	2.15			4.35	4.33	0.885
